Assay results from patent US20130150243A1, “METHOD OF CONTROLLING PEST” (SUMITOMO CHEMICAL COMPANY, LIMITED, priority 2011, published 2013).

Key:
Assay type in all cases: in vivo
cotton = assay: Phytotoxicity on crop; design: key: when phytotoxicity is hardly perceived, it is represented by “no damage”; when slight phytotoxicity is perceived, it is represented by “slight”; when moderate phytotoxicity is perceived, it is represented by “moderate”; when severe phytotoxicity is perceived, it is represented by “severe”; conditions: soil treated with flumioxazin 50 or 75 g/ha 15 days before seeding
Description: For evaluation of phytotoxicity on a crop, when phytotoxicity is hardly perceived, it is represented by “no damage”, when slight phytotoxicity is perceived, it is represented by “slight”, when moderate phytotoxicity is perceived, it is represented by “moderate”, and when severe phytotoxicity is perceived, it is represented by “severe”. The “phytotoxicity” evaluated herein is a damage characteristic determined to be caused by the treated compound, and is clearly discriminated from a damage characteristic caused by a pest.
(§1) Into a plastic cup having an internal diameter of 96 millimeters and a height of 44 millimeters are placed 25 microliters of a clothianidin suspension (suspension containing 600 g/L clothianidin, trade name: NipsIt INSIDE, manufactured by Valent USA) and 50 grains of cotton seeds. By shaking this plastic cup with a hand, the clothianidin suspension is attached to the cotton seeds.
Into a pot made of a plastic having an internal diameter of 177 millimeters and a height of 140 millimeters is packed a soil in which each of about 500 milligrams of seeds of Conyza canadensis, Amaranthus palmeri and Chenopodium album are mixed. A liquid of a flumioxazin water dispersible granule (water dispersible granule containing 51% of flumioxazin, trade name: Valor SX, manufactured by Valent USA) diluted with water is uniformly sprayed on the soil surface of this pot with a sprayer, so that flumioxazin is applied in an amount of 50 or 75 g/ha. Fifteen days after spraying, the cotton seeds are seeded at 5 grains per pot.
Six days after release of Aphis gossypii, the insecticidal activity, herbicidal activity and phytotoxicity are determined, and high weed controlling activity (>80) and high Aphis gossypii control value (>70) are obtained, and the phytotoxicity on the cotton is “no damage”.
Into a plastic cup having an internal diameter of 96 millimeters and a height of 44 millimeters are placed 25 microliters of a thiamethoxam preparation (preparation containing 600 g/L thiamethoxam, trade name: Cruiser 5FS, manufactured by Syngenta) and 50 grains of cotton seeds. By shaking this plastic cup with a hand, the thiamethoxam preparation is attached to the cotton seeds.

[1] = test system: Conyza canadensis, Amaranthus palmeri and Chenopodium album; assay: Herbicidal activity in pot test, soil surface treated before seeding with treated cotton seeds; conditions: assessed 21 days after seeding
Description: Evaluation of herbicidal activity is classified into 0 to 100, letting no or little difference when the state of germination or growth of a test weed at investigation is compared with that of non-treatment to be “0”, and letting complete withering of a test weed or complete inhibition of germination or growth to be “100”.
as §1
Into a pot made of a plastic having an internal diameter of 177 millimeters and a height of 140 millimeters is packed a soil in which each of about 500 milligrams of seeds of Conyza canadensis, Amaranthus palmeri and Chenopodium album are mixed. […]
(§2) Six days after release of Aphis gossypii, the insecticidal activity, herbicidal activity and phytotoxicity are determined, and high weed controlling activity (>80) and high Aphis gossypii control value (>70) are obtained, and the phytotoxicity on the cotton is “no damage”. […]

Aphis gossypii = assay: Insecticidal activity (controlling value) on cotton grown from treated seeds; conditions: soil treated with flumioxazin 50 or 75 g/ha, six days after release of Aphis gossypii
Method: For evaluating the insecticidal activity, life or death of an insect at investigation is determined, and a controlling value is obtained by the following equation:
Controlling value(%)=100×(1−T/C)
C: Number of insects at observation of non-treated section T: Number of insects at observation of treated-section
as §1
Fifteen days after seeding with the cotton seeds, a cotton leaf piece on which 20 larvae and 20 adults of Aphis gossypii inhabited is placed in the pot, and the whole plant is covered with a nylon cloth.
as §2

[2] = Example 1: clothianidin-treated cotton seeds
[3] = Example 2: thiamethoxam-treated cotton seeds

SMILES	phytotoxicity on the cotton (cotton; [2])	phytotoxicity on the cotton (cotton; [3])	weed controlling activity (herbicidal activity, scale 0 to 100) ([1]; Example 1: flumioxazin (Valor SX) 50 or 75 g/ha on soil surface 15 days before seeding, cotton seeds treated with clothianidin)	weed controlling activity (herbicidal activity, scale 0 to 100) ([1]; Example 2: flumioxazin (Valor SX) 50 or 75 g/ha on soil surface 15 days before seeding, cotton seeds treated with thiamethoxam)	Aphis gossypii control value (Aphis gossypii; Example 1: clothianidin suspension (NipsIt INSIDE, 600 g/L) 25 microliters per 50 cotton seeds)	Aphis gossypii control value (Aphis gossypii; Example 2: thiamethoxam preparation (Cruiser 5FS, 600 g/L) 25 microliters per 50 cotton seeds)
C#CCN1C(=O)COc2cc(F)c(N3C(=O)C4=C(CCCC4)C3=O)cc21 [flumioxazin]	no damage	no damage	> 80	> 80		
CN/C(=N\[N+](=O)[O-])NCc1cnc(Cl)s1 [clothianidin]	no damage				> 70%	
CN1COCN(Cc2cnc(Cl)s2)/C1=N\[N+](=O)[O-] [thiamethoxam]		no damage				> 70%
